The subject of data set [1] is subjects with type 2 diabetes mellitus undergoing metformin treatment. As to the kind of experiment: Proof-of-concept 12-week double-blind, randomized, placebo-controlled study of the MTP inhibitor in subjects on metformin treatment. The data set is classed as in vivo, human. The source says:
Proof-of-concept study of combinations of metformin and the MTP inhibitor (+)-phenyl-(4-{4-[(4′-trifluoromethyl-biphenyl-2-carbonyl)-amino]-phenyl}-piperidin-1-yl)-acetic acid methyl ester
Safety and efficacy of the MTP inhibitor (+)-phenyl-(4-{4-[(4′-trifluoromethyl-biphenyl-2-carbonyl)-amino]-phenyl}-piperidin-1-yl)-acetic acid methyl ester in the treatment of subjects with type 2 diabetes mellitus undergoing metformin treatment has been investigated. Three dosing regimens of the MTP inhibitor, 5-10-15 mg bid, were compared to placebo in a double-blind, randomized, parallel-group study design of 12 weeks wherein all subjects were following metformin treatment. All subjects remained on a calorically appropriate, low fat (≦30%) diet, being in accordance with the local practice guidelines for the treatment of type 2 diabetes.
Subjects randomized into the study had to have type 2 diabetes for at least 3 months and remained on a stable metformin monotherapy for at least 2 months. There were 88, 84, 91 and 89 patients randomized to placebo, 5 mg, 10 mg and 15 mg BID. Mean age was 55 years and there were slightly more males than females randomized into the study (males:females—54%:46%).
The mean baseline glycosylated hemoglobin (HbA1c) was 7.8±0.8% (mean±SD) and the mean plasma glucose was 9.1±1.80 mmol/L (mean±SD). The majority (68%) of subjects had HbA1c levels≦8%.
Mean weight at baseline was 94.9 kg and varied between 92.8 kg and 96.7 kg in different treatment groups, while the mean baseline BMI was 32.8 kg/m^2.

The conditions of data set [2]: cited from earlier work.
The mark [3] stands for this setting: 5 mg bid, with metformin, week 12.
[4] abbreviates: 10 mg bid and 15 mg bid, combination with metformin.
The mark [5] stands for this setting: 10 mg bid, with metformin, Week 12.
The mark [6] stands for this setting: 15 mg bid, with metformin, Week 12.

Consider one compound from patent US20100286200A1, “COMBINATION OF METFORMIN AND AN MTP INHIBITOR” (JANSSEN PHARMACEUTICA NV, priority 2008, published 2010).

Regarding `COC(=O)C(c1ccccc1)N1CCC(c2ccc(NC(=O)c3ccccc3-c3ccc(C(F)(F)F)cc3)cc2)CC1` (single isomer, unassigned; (+)) [(+)-phenyl-(4-{4-[(4′-trifluoromethyl-biphenyl-2-carbonyl)-amino]-phenyl}-piperidin-1-yl)-acetic acid methyl ester], in data set [1] (5 mg bid, with metformin), the “mean body weight loss at Week 12” value was determined as 1.71 kg, the “mean body weight loss at Week 12 (percent)” value is on record as 1.0% and the “mean percentage change from baseline at week 12 in fasting plasma glucose (FPG)” value (shortened to “mean percentage change from baseline”) was −2.3%. In data set [1] (5 mg bid, with metformin, Week 12, baseline HbA1c 7.8±0.8%), the “mean decrease in HbA1c (%), change from baseline at Week 12” value (“mean decrease in HbA1c (%), change” below) is listed as −0.46%. Further, in data set [1] (setting [3]), the “HbA1c least square mean (mixed model) difference from placebo” value came to 0.19 and the “absolute change from baseline in FPG (decrease)” value (“absolute change … (decrease)” below) is 0.37 mmol/L. Moreover, in data set [1] (setting [4]), the “LDL levels (fasting plasma lipids)” value is given as “Beneficial effects” and the “ratio of LDL over HDL (fasting plasma lipids)” value is on record as “Beneficial effects”. In data set [1] (10 mg bid, with metformin), the “mean body weight loss at Week 12” value is recorded as 2.80 kg, the “mean body weight loss at Week 12 (percent)” value is listed as 2.9% and the “mean percentage change from baseline” value is listed as −6.1%. In data set [1] (setting [5]), the “HbA1c least square mean (mixed model) difference from placebo” value was 0.28; the “absolute change … (decrease)” value was 0.063 mmol/L; the “mean decrease in HbA1c (%), change” value is −0.55%. For the same compound, in data set [1] (15 mg bid, with metformin), the “mean body weight loss at Week 12” value was determined as 3.37 kg, the “mean body weight loss at Week 12 (percent)” value was 3.6% and the “mean percentage change from baseline” value is recorded as −6.0%. Also, in data set [1] (setting [6]), the “HbA1c least square mean (mixed model) difference from placebo” value amounted to 0.28; the “absolute change … (decrease)” value came to 0.63 mmol/L; the “mean decrease in HbA1c (%), change” value was −0.54%. Besides, the “change from baseline at Week 12 of HbA1c levels vs. placebo (mixed model analysis)” value in data set [1] (all active treatment arms (5, 10, 15 mg bid), with metformin) is “statistically significant decrease vs. placebo”. In data set [2], the “metabolism in the plasma” value is “rapidly metabolised in the plasma” and the systemic plasma concentrations result is “very low systemic plasma concentrations”.
